Source: patent US5750530A, “Pharmaceutical diketopiperazine compounds” (Xenova Limited, priority 1994, dated 1998)
Where a name gives a salt, the structure may show the parent alone.

Target: PAI-1 (Homo sapiens, UniProt P05121)
Test: biochemical
Type: biochemical
Conditions: for IC50: PAI chromogenic substrate assay
Summary of the method: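 Compound preincubated with PAI-1 before addition to a tPA system; residual tPA converts plasminogen to plasmin, which cleaves chromogenic substrate S2251. Released p-nitroaniline read at 405 nm; values given as % inhibition at set concentrations or IC50.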

Sequence of PAI-1 (P05121 24-402): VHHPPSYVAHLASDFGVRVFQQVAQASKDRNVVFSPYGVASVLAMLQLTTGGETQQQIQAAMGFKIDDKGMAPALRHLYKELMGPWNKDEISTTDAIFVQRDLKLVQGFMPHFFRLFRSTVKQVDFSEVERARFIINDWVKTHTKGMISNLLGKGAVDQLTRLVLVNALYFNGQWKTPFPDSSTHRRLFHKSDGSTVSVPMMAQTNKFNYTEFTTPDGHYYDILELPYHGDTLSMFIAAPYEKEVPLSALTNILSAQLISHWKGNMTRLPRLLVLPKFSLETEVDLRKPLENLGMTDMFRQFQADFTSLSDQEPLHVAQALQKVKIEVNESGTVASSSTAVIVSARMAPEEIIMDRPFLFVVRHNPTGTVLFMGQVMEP

SMILES	% Inhibition (5 μm) [%]	% Inhibition (20 μm) [%]	IC50 [µM]
CN(C)CCSc1ccc(/C=c2\[nH]c(=O)/c(=C/c3ccc([N+](=O)[O-])cc3)[nH]c2=O)cc1 [Compound 5461.HCl, (3Z,6Z)-3-(4-(2-Dimethylaminoethylthio)benzylidene)-6-(4-nitrobenzylidene)-2,5-piperazinedione]	10	56	–
CN(C)CCSc1ccc(/C=c2\[nH]c(=O)/c(=C/c3ccc(C#N)cc3)[nH]c2=O)cc1 [Compound 5462, (3Z,6Z)-3-(4-Cyanobenzylidene)-6-(4-(2-dimethylaminoethylthio)benzylidene)-2,5-piperazinedione]	41	43	–
CN(C)CCSc1ccc(/C=c2\[nH]c(=O)/c(=C/c3ccc(C#N)cc3)[nH]c2=O)cc1 [Compound 5462.HCl, (3Z,6Z)-3-(4-Cyanobenzylidene)-6-(4-(2-dimethylaminoethylthio)benzylidene)-2,5-piperazinedione]	45	41	–
Cc1ccc(/C=c2\[nH]c(=O)/c(=C/c3ccc(SCCN(C)C)cc3)[nH]c2=O)cc1 [Compound 5463, (3Z,6Z)-3-(4-(2-Dimethylaminoethylthio)benzylidene)-6-(4-methylbenzylidene)-2,5-piperazinedione]	76	78	4
Cc1ccc(/C=c2\[nH]c(=O)/c(=C/c3ccc(SCCN(C)C)cc3)[nH]c2=O)cc1 [Compound 5463.HCl, (3Z,6Z)-3-(4-(2-Dimethylaminoethylthio)benzylidene)-6-(4-methylbenzylidene)-2,5-piperazinedione]	78	80	3.1
COc1ccc(/C=c2\[nH]c(=O)/c(=C/c3ccc(SCCN(C)C)s3)[nH]c2=O)cc1 [Compound 5464, (3Z,6Z)-3-(5-(2-Dimethylaminoethylthio)-2-thienyl)methylene-6-(4-methoxybenzylidene)-2,5-piperazinedione]	19	58	10.5
COc1ccc(/C=c2\[nH]c(=O)/c(=C/c3ccc(SCCN(C)C)s3)[nH]c2=O)cc1 [Compound 5464.HCl, (3Z,6Z)-3-(5-(2-Dimethylaminoethylthio)-2-thienyl)methylene-6-(4-methoxybenzylidene)-2,5-piperazinedione]	17	61	11.2
CN(C)CCSc1ccc(/C=c2\[nH]c(=O)/c(=C/c3ccc(Cl)c(Cl)c3)[nH]c2=O)cc1 [Compound 5465, (3Z,6Z)-3-(3,4-Dichlorobenzylidene)-6-(4-(2-dimethylaminoethylthio)benzylidene)-2,5-piperazinedione]	32	73	3.6
CN(C)CCSc1ccc(/C=c2\[nH]c(=O)/c(=C/c3ccc(Cl)c(Cl)c3)[nH]c2=O)cc1 [Compound 5465.HCl, (3Z,6Z)-3-(3,4-Dichlorobenzylidene)-6-(4-(2-dimethylaminoethylthio)benzylidene)-2,5-piperazinedione]	42	76	2.6
CN(C)CCSc1ccc(/C=c2\[nH]c(=O)/c(=C/c3cccnc3)[nH]c2=O)s1 [Compound 5470, (3Z,6Z)-6-(5-(2-Dimethylaminoethylthio)-2-thienyl)methylene-3-(3-pyridylmethylene)-2,5-piperazinedione]	1	0	–
CN(C)CCSc1ccc(/C=c2\[nH]c(=O)/c(=C/c3cccnc3)[nH]c2=O)s1 [Compound 5470.HCl, (3Z,6Z)-6-(5-(2-Dimethylaminoethylthio)-2-thienyl)methylene-3-(3-pyridylmethylene)-2,5-piperazinedione]	1	1	–
CN(C)CCSc1ccc(/C=c2\[nH]c(=O)/c(=C/c3ccccn3)[nH]c2=O)s1 [Compound 5471, (3Z,6Z)-6-(5-(2-Dimethylaminoethylthio)-2-thienyl)methylene-3-(2-pyridylmethylene)-2,5-piperazinedione]	0	1	–
CN(C)CCSc1ccc(/C=c2\[nH]c(=O)/c(=C/c3ccccn3)[nH]c2=O)s1 [Compound 5471.HCl, (3Z,6Z)-6-(5-(2-Dimethylaminoethylthio)-2-thienyl)methylene-3-(2-pyridylmethylene)-2,5-piperazinedione]	1	2	–
CN(C)CCSc1ccc(/C=c2\[nH]c(=O)/c(=C/c3ccncc3)[nH]c2=O)s1 [Compound 5472, (3Z,6Z)-6-(5-(2-Dimethylaminoethylthio)-2-thienyl)methylene-3-(4-pyridylmethylene)-2,5-piperazinedione]	0	22	–
CN(C)CCSc1ccc(/C=c2\[nH]c(=O)/c(=C/c3cn(C)c4ccccc34)[nH]c2=O)s1 [Compound 5473, (3Z,6Z)-6-(5-(2-Dimethylaminoethylthio)-2-thienyl)methylene-3-(1-methyl-3-indolyl)methylene-2,5-piperazinedione]	25	61	13.8
CN(C)CCSc1ccc(/C=c2\[nH]c(=O)/c(=C/c3cn(C)c4ccccc34)[nH]c2=O)s1 [Compound 5473.HCl, (3Z,6Z)-6-(5-(2-Dimethylaminoethylthio)-2-thienyl)methylene-3-(1-methyl-3-indolyl)methylene-2,5-piperazinedione]	10	54	20
CN(C)CCSc1ccc(/C=c2\[nH]c(=O)/c(=C/c3cccc(C#N)c3)[nH]c2=O)cc1 [Compound 5476, (3Z,6Z)-3-(3-Cyanobenzylidene)-6-(4-(2-dimethylaminoethylthio)benzylidene)-2,5-piperazinedione]	21	38	–
CN(C)CCSc1ccc(/C=c2\[nH]c(=O)/c(=C/c3cccc(C#N)c3)[nH]c2=O)cc1 [Compound 5476.HCl, (3Z,6Z)-3-(3-Cyanobenzylidene)-6-(4-(2-dimethylaminoethylthio)benzylidene)-2,5-piperazinedione]	11	34	–
COC(=O)c1ccc(/C=c2\[nH]c(=O)/c(=C/c3ccc(SCCN(C)C)s3)[nH]c2=O)cc1 [Compound 5477, (3Z,6Z)-3-(5-(2-Dimethylaminoethylthio)-2-thienyl)methylene-6-(4-methoxycarbonylbenzylidene)-2,5-piperazinedione]	10	59	20
COC(=O)c1ccc(/C=c2\[nH]c(=O)/c(=C/c3ccc(SCCN(C)C)s3)[nH]c2=O)cc1 [Compound 5477.HCl, (3Z,6Z)-3-(5-(2-Dimethylaminoethylthio)-2-thienyl)methylene-6-(4-methoxycarbonylbenzylidene)-2,5-piperazinedione]	19	69	15.4
COC(=O)c1ccc(/C=c2\[nH]c(=O)/c(=C/c3ccc(SCCN(C)C)cc3)[nH]c2=O)cc1 [Compound 5478.HCl, (3Z,6Z)-3-(4-(2-Dimethylaminoethylthio)benzylidene)-6-(4-methoxycarbonylbenzylidene)-2,5-piperazinedione]	3	60	16.9
COc1ccc(/C=c2\[nH]c(=O)/c(=C/c3ccc(SCCN(C)C)cc3)[nH]c2=O)cc1 [Compound 5479, (3Z,6Z)-3-(4-(2-Dimethylaminoethylthio)benzylidene)-6-(4-methoxybenzylidene)-2,5-piperazinedione]	66	70	4.3
COc1ccc(/C=c2\[nH]c(=O)/c(=C/c3ccc(SCCN(C)C)cc3)[nH]c2=O)cc1 [Compound 5479.HCl, (3Z,6Z)-3-(4-(2-Dimethylaminoethylthio)benzylidene)-6-(4-methoxybenzylidene)-2,5-piperazinedione]	62	75	4.8
CN(C)CCSc1ccc(/C=c2\[nH]c(=O)/c(=C/c3ccc(Br)cc3)[nH]c2=O)cc1 [Compound 5480, (3Z,6Z)-3-(4-Bromobenzylidene)-6-(4-(2-dimethylaminoethylthio)benzylidene)-2,5-piperazinedione]	53	74	5.2
CN(C)CCSc1ccc(/C=c2\[nH]c(=O)/c(=C/c3ccc(Br)cc3)[nH]c2=O)cc1 [Compound 5480.HCl, (3Z,6Z)-3-(4-Bromobenzylidene)-6-(4-(2-dimethylaminoethylthio)benzylidene)-2,5-piperazinedione]	52	76	–
CN(C)CCSc1ccc(/C=c2\[nH]c(=O)/c(=C/c3ccc(OCc4ccccc4)cc3)[nH]c2=O)cc1 [Compound 5481, (3Z,6Z)-3-(4-Benzyloxybenzylidene)-6-(4-(2-dimethylaminoethylthio)benzylidene)-2,5-piperazinedione]	9	56	20
CN(C)CCSc1ccc(/C=c2\[nH]c(=O)/c(=C/c3ccc(OCc4ccccc4)cc3)[nH]c2=O)cc1 [Compound 5481.HCl, (3Z,6Z)-3-(4-Benzyloxybenzylidene)-6-(4-(2-dimethylaminoethylthio)benzylidene)-2,5-piperazinedione]	10	55	–
CN(C)CCSc1ccc(/C=c2\[nH]c(=O)/c(=C/c3ccc(OCc4ccccc4)cc3)[nH]c2=O)s1 [Compound 5482, (3Z,6Z)-6-(4-Benzyloxybenzylidene)-3-(5-(2-dimethylaminoethylthio)-2-thienyl)methylene-2,5-piperazinedione]	12	50	20
CN(C)CCSc1ccc(/C=c2\[nH]c(=O)/c(=C/c3ccc(OCc4ccccc4)cc3)[nH]c2=O)s1 [Compound 5482.HCl, (3Z,6Z)-6-(4-Benzyloxybenzylidene)-3-(5-(2-dimethylaminoethylthio)-2-thienyl)methylene-2,5-piperazinedione]	13	59	–
